Results as given in patent US20090030024A1, “THIAZOLES AS FUNGICIDES” (priority 2005, published 2009).

Assay: logP determination by retention times (calibration with alkan-2-ones)
Settings: not given

Row | SMILES | chromatographic logP
1 | COc1cccc(Nc2nccc(-c3sc(C)nc3C)n2)c1 [Example 183, 4-(2,4-dimethyl-1,3-thiazol-5-yl)-N-(3-methoxyphenyl)pyrimidine-2-amine] | 2.64
2 | COC(=O)Nc1ccc(Nc2nccc(-c3sc(C)nc3C)n2)cc1 [Example 380, methyl-(4-{[4-(2,4-dimethyl-1,3-thiazol-5-yl)pyrimidin-2-yl]amino}phenyl)carbamate] | 1.84
3 | COCC(C)Nc1nc(C)c(-c2ccnc(Nc3cccc(OC)c3)n2)s1 (stereo not drawn) [Example 333, 4-{2-[(2-methoxy-1-methylethyl)amino]-4-methyl-1,3-thiazol-5-yl}-N-(3-methoxyphenyl)pyrimidine-2-amine] | 2.03
4 | Cc1nc(C(C)C)sc1-c1ccnc(Nc2cccc([N+](=O)[O-])c2)n1 [Example 246, 4-(2-isopropyl-4-methyl-1,3-thiazol-5-yl)-N-(3-nitrophenyl)pyrimidine-2-amine] | 3.55
5 | COCc1nc(C)c(-c2ccnc(Nc3cccc(O)c3)n2)s1 [Example 101, 3-({4-[2-(methoxymethyl)-4-methyl-1,3-thiazol-5-yl]pyrimidin-2-yl}amino)phenol] | 1.97
6 | COc1ccc(Nc2nccc(-c3sc(N)nc3C)n2)cc1OC [Example 202, 4-(2-amino-4-methyl-1,3-thiazol-5-yl)-N-(3,4-dimethoxyphenyl)pyrimidine-2-amine] | 1.28
7 | COc1ccc(Nc2nccc(-c3sc(C4CC4)nc3C)n2)cn1 [Example 228, 4-(2-cyclopropyl-4-methyl-1,3-thiazol-5-yl)-N-(6-methoxypyridin-3-yl)pyrimidine-2-amine] | 2.53
8 | COCc1nc(C)c(-c2ccnc(Nc3ccc(C#N)cc3)n2)s1 [Example 179, 4-({4-[2-(methoxymethyl)-4-methyl-1,3-thiazol-5-yl]pyrimidin-2-yl}amino)benzonitrile] | 2.57
9 | COCc1nc(C)c(-c2ccnc(Nc3ccc(OC)nc3)n2)s1 [Example 298, 4-[2-(methoxymethyl)-4-methyl-1,3-thiazol-5-yl]-N-(6-methoxypyridin-3-yl)pyrimidine-2-amine] | 2.13
10 | Cc1nc(N)sc1-c1ccnc(Nc2ccc(O)cc2)n1 [Example 323, 4-{[4-(2-amino-4-methyl-1,3-thiazol-5-yl)pyrimidin-2-yl]amino}phenol] | 0.93
11 | Cc1nc(C(C)C)sc1-c1ccnc(Nc2cccc(C(F)(F)F)c2)n1 [Example 248, 4-(2-isopropyl-4-methyl-1,3-thiazol-5-yl)-N-[3-(trifluoromethyl)phenyl]pyrimidine-2-amine] | 4.3

Same assay, conditions: * HPLC reversed-phase C18, 40° C., mobile phase 0.1% aqueous formic acid and acetonitrile, linear gradient 10% to 95% acetonitrile

Row | SMILES | logP
12 | Cc1nc(N(C)C)sc1-c1ccnc(Nc2cccc(N3CCCC3=O)c2)n1 [Example 782, 1-[3-({4-[2-(dimethylamine)-4-methyl-1,3-thiazol-5-yl]pyrimidin-2-yl}amino)phenyl]pyrrolidin-2-one] | 1.65*
13 | CNc1nc(C)c(-c2ccnc(Nc3cccc(NC(C)=O)c3)n2)s1 [Example 684, N-[3-({4-[4-methyl-2-(methylamine)-1,3-thiazol-5-yl]pyrimidin-2-yl}amino)phenyl]acetamide] | 1.26*
14 | CC(=O)Nc1ccc(Nc2nccc(-c3sc(N(C)C)nc3C(F)(F)F)n2)cc1 [Example 699, N-[4-({4-[2-(dimethylamine)-4-(trifluoromethyl)-1,3-thiazol-5-yl]pyrimidin-2-yl}amino)phenyl]acetamide] | 2.58*

Same assay, conditions: logP, * HPLC reversed-phase C18, 40° C., mobile phase 0.1% aqueous formic acid and acetonitrile, linear gradient 10% to 95% acetonitrile

Row | SMILES | chromatographic logP
15 | CCc1nc(C)c(-c2ccnc(Nc3ccc(OCC(C)(C)C)nc3)n2)s1 [Example 721, N-[6-(2,2-dimethylpropoxy)pyridin-3-yl]-4-(2-ethyl-4-methyl-1,3-thiazol-5-yl)pyrimidine-2-amine] | 4.23
16 | COc1cc(Nc2nccc(-c3cnc(-c4ccc(Cl)cc4)s3)n2)cc(OC)c1OC [Example 792, 4-[2-(4-chlorophenyl)-1,3-thiazol-5-yl]-N-(3,4,5-trimethoxyphenyl)pyrimidine-2-amine] | 4.12
17 | COCCNc1nc(C)c(-c2ccnc(Nc3ccc(C#N)cc3)n2)s1 [Example 807, 4-[(4-{2-[(2-methoxyethyl)amino]-4-methyl-1,3-thiazol-5-yl}pyrimidin-2-yl)amino]benzonitrile] | 1.9
18 | COCCNc1nc(C)c(-c2ccnc(Nc3cccc(Cl)c3)n2)s1 [Example 680, N-(3-chlorophenyl)-4-{2-[(2-methoxyethyl)amino]-4-methyl-1,3-thiazol-5-yl}pyrimidine-2-amine] | 2.28
19 | CCc1nc(C)c(-c2ccnc(Nc3ccc(C(C)=O)cc3)n2)s1 [Example 717, 1-(4-{[4-(2-ethyl-4-methyl-1,3-thiazol-5-yl)pyrimidin-2-yl]amino}phenyl)ethanone] | 2.6
20 | COCc1nc(C)c(-c2ccnc(Nc3cc(OC)cc(OC)c3)n2)s1 [Example 764, N-(3,5-dimethoxyphenyl)-4-[2-(methoxymethyl)-4-methyl-1,3-thiazol-5-yl]pyrimidine-2-amine] | 2.73
21 | CCc1nc(C)c(-c2ccnc(Nc3ccc(F)cc3F)n2)s1 [Example 760, N-(2,4-difluorophenyl)-4-(2-ethyl-4-methyl-1,3-thiazol-5-yl)pyrimidine-2-amine] | 3.27
22 | CC(=O)c1cccc(Nc2nccc(-c3sc(N4CCOCC4)nc3C)n2)c1 [Example 736, 1-(3-{[4-(4-methyl-2-morpholin-4-yl-1,3-thiazol-5-yl)pyrimidin-2-yl]amino}phenyl)ethanone] | 2.16
23 | Cc1nc(C)c(-c2ccnc(Nc3cccc(N(C)C)c3)n2)s1 [Example 551, N′-[4-(2,4-dimethyl-1,3-thiazol-5-yl)pyrimidin-2-yl]-N,N-dimethylbenzene-1,3-diamine] | 1.75
24 | COc1ccc(Nc2nccc(-c3sc(C)nc3C)n2)cc1O [Example 790, 5-{[4-(2,4-dimethyl-1,3-thiazol-5-yl)pyrimidin-2-yl]amino}-2-methoxyphenol] | 1.79
25 | COCCNc1nc(C)c(-c2ccnc(Nc3cc(OC)c(OC)c(OC)c3)n2)s1 [Example 679, 4-{2-[(2-methoxyethyl)amino]-4-methyl-1,3-thiazol-5-yl}-N-(3,4,5-trimethoxyphenyl)pyrimidine-2-amine] | 1.74
26 | Cc1nc(C2CC2)sc1-c1ccnc(Nc2ccc(N(C)C)cc2)n1 [Example 555, N′-[4-(2-cyclopropyl-4-methyl-1,3-thiazol-5-yl)pyrimidin-2-yl]-N,N-dimethylbenzene-1,4-diamine] | 1.63
27 | COc1cccc(Nc2nccc(-c3sc(SC)nc3C)n2)c1 [Example 449, N-(3-methoxyphenyl)-4-[4-methyl-2-(methylthio)-1,3-thiazol-5-yl]pyrimidine-2-amine] | 3.33
28 | COc1cc(N(C(C)=O)c2nccc(-c3sc(C)nc3C)n2)cc(OC)c1OC [Example 667, N-[4-(2,4-dimethyl-1,3-thiazol-5-yl)pyrimidin-2-yl]-N-(3,4,5-trimethoxyphenyl)acetamide] | 1.9
29 | COCC(C)Nc1nc(C)c(-c2ccnc(Nc3cccc(Cl)c3)n2)s1 (stereo not drawn) [Example 437, N-(3-chlorophenyl)-4-{2-[(2-methoxy-1-methylethyl)amino]-4-methyl-1,3-thiazol-5-yl}pyrimidine-2-amine] | 2.47

Same assay, conditions: logP, values marked *: HPLC on reversed-phase C 18, 40° C., mobile phase 0.1% aqueous formic acid and acetonitrile, linear gradient 10% to 95% acetonitrile

Row | SMILES | chromatographic logP
30 | CCc1nc(C)c(-c2nc(Nc3ccccc3)ncc2Cl)s1 [Example 876, 5-chloro-4-(2-ethyl-4-methyl-1,3-thiazol-5-yl)-N-phenylpyrimidine-2-amine] | 3.78
31 | COCCCNc1nc(C)c(-c2ccnc(Nc3ccc(F)cc3)n2)s1 [Example 851, N-(4-fluorophenyl)-4-{2-[(3-methoxypropyl)amino]-4-methyl-1,3-thiazol-5-yl}pyrimidine-2-amine] | 1.92
32 | COCCOc1nc(C)c(-c2ccnc(Nc3cc(OC)c(OC)c(OC)c3)n2)s1 [Example 910, 4-[2-(2-methoxyethoxy)-4-methyl-1,3-thiazol-5-yl]-N-(3,4,5-trimethoxyphenyl)pyrimidine-2-amine] | 2.53
33 | COc1ccc(Nc2nccc(-c3sc(C(C)C)nc3C)n2)cc1 [Example 821, 4-(2-isopropyl-4-methyl-1,3-thiazol-5-yl)-N-(4-methoxyphenyl)pyrimidine-2-amine] | 3.25
34 | COCCNc1nc(C)c(-c2ccnc(Nc3ccc(O)cc3)n2)s1 [Example 808, 4-[(4-{2-[(2-methoxyethyl)amino]-4-methyl-1,3-thiazol-5-yl}pyrimidin-2-yl)amino]phenol] | 1.22
35 | COCCOc1nc(C)c(-c2ccnc(Nc3ccc(C(C)=O)cc3)n2)s1 [Example 916, 1-[4-({4-[2-(2-methoxyethoxy)-4-methyl-1,3-thiazol-5-yl]pyrimidin-2-yl}amino)phenyl]ethanone] | 2.58
36 | COc1cc(Nc2nccc(-c3sc(C(C)(C)C)nc3C)n2)cc(OC)c1OC [Example 888, 4-(2-tert-butyl-4-methyl-1,3-thiazol-5-yl)-N-(3,4,5-trimethoxyphenyl)pyrimidine-2-amine] | 3.48
37 | COCC(C)Nc1nc(C)c(-c2ccnc(Nc3ccc4c(c3)C(=O)OC4)n2)s1 (stereo not drawn) [Example 889, 6-[(4-{2-[(2-methoxy-1-methylethyl)amino]-4-methyl-1,3-thiazol-5-yl}pyrimidin-2-yl)amino]-2-benzofuran-1(3H)-one] | 1.65
38 | COCCCNc1nc(C)c(-c2ccnc(Nc3ccc(OC)nc3)n2)s1 [Example 858, 4-{2-[(3-methoxypropyl)amino]-4-methyl-1,3-thiazol-5-yl}-N-(6-methoxypyridin-3-yl)pyrimidine-2-amine] | 1.57

Same assay, conditions: values marked *: HPLC on reversed-phase C 18, 40° C., mobile phase 0.1% aqueous formic acid and acetonitrile, linear gradient 10% to 95% acetonitrile

Row | SMILES | logP
39 | CC(=O)Nc1cccc(Nc2nccc(-c3sc(N(C)C)nc3C(F)(F)F)n2)c1 [Example 860, N-[3-({4-[2-(dimethylamine)-4-(trifluoromethyl)-1,3-thiazol-5-yl]pyrimidin-2-yl}amino)phenyl]acetamide] | 2.65*
